Columns and labels:
[1] = target: T1, β1-AR (Homo sapiens, UniProt P08588); experiment: CRE-luciferase production in CHO-β1-CRE-luciferase cells; details: CHO-β1-CRE-luciferase cells; for % isop: response compared to 10 μM isoprenaline; for EC50: biphasic concentration response
[2] = target: T1, β1-AR; experiment: Summary of pharmacological outcome at the β1-AR (CHO-β1-luciferase or CHO-β1-SPAP cells); details: for Pharmacological Outcome: CCE/IBS conformation / Pharmacological Outcome: SCE conformation: β1-AR, summary
[3] = target: T1, β1-AR; experiment: CRE-SPAP production in CHO-β1-CRE-SPAP cells; type: cell-based; design: expressed in transfected cells; host or cells: CHO-K1 clonal lines (CHO-β1-CRE-luc, CHO-β1-CRE-SPAP); details: CHO-β1-CRE-SPAP cells; for % Isoprenaline: response compared with 10 μM isoprenaline
Experimental: (§1) Many agonist responses were best described by a one-site sigmoidal agonist concentration-response curve.
(§2) In experiments where 3 different fixed concentrations of the same antagonist were used, Schild plots were constructed using equation (6):(6) logDR-1=logB-logKD
(§3) These points were then fitted to a straight line. A slope of 1 then indicates competitive antagonism.[39]
(§4) Where clear partial agonism was present (eg, Fig. 3D), the partial agonist affinity was calculated by the method of Stephenson[40] using equation 7.
(§5) (7) KDpartialagonist=Y×P/1-YwhereY=A2-A1/A3 where [P] is the concentration of the partial agonist, [A1] is the concentration of the agonist at the point where the fixed partial agonist causes the same response, [A2] is the concentration of agonist causing a given response above that achieved by the partial agonist, and [A3] is the concentration of the agonist, in the presence of the partial agonist, causing the same stimulation as [A2].
where N is the percentage of site 1, [A] is the concentration of agonist, and EC1_50 and EC2_50 are the respective EC50 values for the 2 agonist sites.

[4] = target: T2, human β2-AR (Homo sapiens, UniProt P07550); experiment: CRE-SPAP production in CHO-β2-CRE-SPAP cells; type: cell-based; design: expressed in transfected cells; host or cells: CHO-K1 clonal line (CHO-β2-CRE-SPAP); details: for % Isoprenaline: response compared with 10 μM isoprenaline
T2 sequence (P07550 whole entry): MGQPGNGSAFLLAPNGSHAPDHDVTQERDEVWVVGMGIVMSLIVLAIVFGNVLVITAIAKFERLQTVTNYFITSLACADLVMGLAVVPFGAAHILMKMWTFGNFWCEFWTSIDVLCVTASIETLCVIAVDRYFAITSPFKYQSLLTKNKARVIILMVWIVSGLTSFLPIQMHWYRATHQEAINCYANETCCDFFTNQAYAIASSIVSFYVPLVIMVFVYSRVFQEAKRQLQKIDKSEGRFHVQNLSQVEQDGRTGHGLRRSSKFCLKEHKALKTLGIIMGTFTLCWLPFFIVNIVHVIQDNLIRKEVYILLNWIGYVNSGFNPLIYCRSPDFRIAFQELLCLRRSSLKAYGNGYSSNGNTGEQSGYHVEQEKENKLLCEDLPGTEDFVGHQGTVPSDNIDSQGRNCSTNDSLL
Experimental: as §1, §2, §3, §4, §5

[5] = target: T2, human β2-AR; experiment: 3H-CGP12177 whole-cell binding in CHO-β2-CRE-SPAP cells
[6] = target: T1, β1-AR; experiment: 3H-CGP12177 whole-cell binding in CHO-β1-CRE-SPAP cells
[7] = % of the response occurring via first component

T1 sequence (P08588 whole entry): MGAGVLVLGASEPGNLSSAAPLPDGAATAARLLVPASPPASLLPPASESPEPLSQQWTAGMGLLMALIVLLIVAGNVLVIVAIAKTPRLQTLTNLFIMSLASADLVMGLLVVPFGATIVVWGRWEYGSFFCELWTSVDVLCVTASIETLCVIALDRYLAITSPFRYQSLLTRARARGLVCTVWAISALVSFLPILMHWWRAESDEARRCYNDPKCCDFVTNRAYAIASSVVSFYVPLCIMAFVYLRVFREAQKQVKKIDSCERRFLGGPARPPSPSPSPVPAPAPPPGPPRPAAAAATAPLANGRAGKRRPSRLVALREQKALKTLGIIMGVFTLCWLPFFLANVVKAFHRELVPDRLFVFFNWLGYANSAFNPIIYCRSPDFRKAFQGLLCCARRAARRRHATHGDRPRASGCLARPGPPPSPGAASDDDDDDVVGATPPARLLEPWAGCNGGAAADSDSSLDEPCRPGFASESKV

| SMILES | % isop [1] [%] | Pharmacological Outcome: CCE/IBS conformation [2] | Pharmacological Outcome: SCE conformation [2] | % Isoprenaline [3] [%] | % Isoprenaline [4] [%] | Kd [6] [nM] | other results |
| --- | --- | --- | --- | --- | --- | --- | --- |
| C=CCc1ccccc1OCC(O)CNC(C)C (racemic) [Alprenolol, (RS)-1-(2-allylphenoxy)-3-(isopropylamino)propan-2-ol, reference compound] | 3.2 ± 0.8 | Agonist (biphasic) | Agonist (biphasic) | 56.7 ± 3.7 |  |  | % at EC501 [3, 7]: 62.5 ± 2.7% |
| C=CCOc1ccccc1OCC(O)CNC(C)C (racemic) [Oxprenolol, (RS)-1-[2-(allyloxy)phenoxy]-3-(isopropylamino)propan-2-ol, reference compound] |  | Agonist (biphasic) | Agonist (biphasic) |  | 40.1 ± 2.3 |  |  |
| CC(C)NCC(O)COc1cccc2[nH]ccc12 (racemic) [Pindolol, (RS)-1-[(1H -indol-4-yl)oxy]-3-(isopropylamino)propan-2-ol, reference compound] | 11.7 ± 1.4 | Agonist (biphasic) | Agonist (biphasic) |  |  |  |  |
| CC(C)(Cc1c[nH]c2ccccc12)NCC(O)COc1ccccc1C#N (stereo not drawn) [Bucindolol, 2-[2-hydroxy-3-[[2-(1H -indol-3-yl)-1,1-dimethyl-ethyl]amino]propoxy]benzonitrile, reference compound] | 23.7 ± 1.7 | Agonist (biphasic) | Agonist (biphasic) | 84.5 ± 2.4 | 70.3 ± 2.0 | 0.575 | Kd [5]: 0.0513 nM; β2-Selectivity ([5]; β2 over β1 affinity from whole-cell binding): 11.2 fold; EC50 ([4]; agonist action): 0.2 nM; % at EC501 [1, 7]: 23.3 ± 2.4%; EC50 ([1]; EC501 (log EC50 of first component)): 0.537 nM; EC50 ([1]; EC502 (log EC50 of second component)): 57.5 nM; EC50 ([3]; agonist action, read-out: Log EC50 (converted)): 0.759 nM |
| CC(C)(C)NC[C@H](O)COc1cccc2c1CCCC2=O [VL03, 5-[(2S)-3-(tert-butylamino)-2-hydroxypropoxy]-3,4-dihydro-2H -naphthalen-1-one] |  | High-affinity neutral antagonist | Low-affinity neutral antagonist |  |  | 5.13 | Schild slope ([4]; CGP12177 as agonist): 1.00 ± 0.03; Kd ([4]; Log KD (CGP12177 as Agonist), rightward shift of CGP12177 response): 0.0759 nM; Kd ([4]; Log KD (Cimaterol as Agonist), rightward shift of cimaterol response, Gaddum, or Stephenson (a)): 0.0468 nM; Log EC50 ([4]; agonist action): No response; Schild slope ([4]; cimaterol as agonist): 0.99 ± 0.04; Log EC50 ([1]; agonist action, given as log EC50 (negative)): No response; Evidence of SCE activation ([2]; evidence A–D as outlined in the Introduction, CHO-β1-luciferase or CHO-β1-SPAP cells): None; Kd ([3]; Log KD Catecholamine conformation Cimaterol as Agonist, rightward shift of cimaterol response, Gaddum, or Stephenson (a)): 1.78 nM; Kd ([3]; Log KD Secondary Conformation CGP12177 as Agonist, rightward shift of CGP12177 response): 562 nM; Log EC50 ([3]; agonist action): No response; Schild slope ([3]; cimaterol as agonist): 0.96 ± 0.05 |
| CC(C)(C)NC[C@@H](O)COc1cccc2c1CCC(=O)N2 [VL04, 5-[(2R)-3-(tert-butylamino)-2-hydroxypropoxy]-3,4-dihydro-1H -quinolin-2-one] |  |  |  |  | 55.1 ± 2.7 |  |  |

Source: PMC12799587, “Predicting compounds that interact with the 2 known agonist-induced conformations of the human β1-adrenoceptor” (Molecular Pharmacology, 2025)
